This is an account of results in patent US20030143729A1 (Synaptic Pharmaceutical Corporation, priority 1992, published 2003).

By inhibition is commonly meant the drop in the measured response relative to a control, in per cent. A word on the IC50: it is the concentration needed to halve the response being measured.

One assay deals with T1, GAT-1 (Rattus norvegicus, UniProt P23978).
T1 construct: expressed in transfected cells; host or cells: COS-7 cells, transient (DEAE-dextran)
Kind of assay: [3H]GABA uptake by COS-7 cells transfected with GAT-1 (rB46a). In kind it is cell-based.

The next assay deals with T2, GAT-3 (Rattus norvegicus, UniProt P31647).
T2 sequence (P31647 1-627): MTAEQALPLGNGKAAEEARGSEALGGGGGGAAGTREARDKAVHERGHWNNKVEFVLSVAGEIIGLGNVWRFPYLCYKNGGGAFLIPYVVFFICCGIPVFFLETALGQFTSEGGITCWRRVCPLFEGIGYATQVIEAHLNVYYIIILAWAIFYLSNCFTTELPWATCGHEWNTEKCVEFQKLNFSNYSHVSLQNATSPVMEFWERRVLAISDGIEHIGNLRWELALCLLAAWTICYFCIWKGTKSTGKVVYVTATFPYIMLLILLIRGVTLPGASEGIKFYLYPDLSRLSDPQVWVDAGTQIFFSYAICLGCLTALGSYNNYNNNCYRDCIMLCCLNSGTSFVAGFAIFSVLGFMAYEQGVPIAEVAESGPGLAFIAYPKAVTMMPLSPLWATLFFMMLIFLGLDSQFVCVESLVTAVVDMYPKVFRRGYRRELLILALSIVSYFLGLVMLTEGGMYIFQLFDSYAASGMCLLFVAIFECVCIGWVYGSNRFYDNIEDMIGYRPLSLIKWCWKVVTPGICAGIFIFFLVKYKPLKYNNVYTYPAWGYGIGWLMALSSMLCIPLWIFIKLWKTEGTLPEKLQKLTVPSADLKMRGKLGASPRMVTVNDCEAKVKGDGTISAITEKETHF
Kind of assay: [3H]GABA uptake by COS cells transfected with GAT-3 (rB8b or K438-rB8b). In kind it is cell-based.

The next assay addresses T3, rGAT-2 (Rattus norvegicus, UniProt P31646).
T3 construct: randomly primed GAT-2 full-length or GAT-3 truncated or full-length cDNA clones; expressed in transfected cells; host or cells: COS cells, transient, plasmid pEVJB-rB14b
T3 sequence (P31646 1-602): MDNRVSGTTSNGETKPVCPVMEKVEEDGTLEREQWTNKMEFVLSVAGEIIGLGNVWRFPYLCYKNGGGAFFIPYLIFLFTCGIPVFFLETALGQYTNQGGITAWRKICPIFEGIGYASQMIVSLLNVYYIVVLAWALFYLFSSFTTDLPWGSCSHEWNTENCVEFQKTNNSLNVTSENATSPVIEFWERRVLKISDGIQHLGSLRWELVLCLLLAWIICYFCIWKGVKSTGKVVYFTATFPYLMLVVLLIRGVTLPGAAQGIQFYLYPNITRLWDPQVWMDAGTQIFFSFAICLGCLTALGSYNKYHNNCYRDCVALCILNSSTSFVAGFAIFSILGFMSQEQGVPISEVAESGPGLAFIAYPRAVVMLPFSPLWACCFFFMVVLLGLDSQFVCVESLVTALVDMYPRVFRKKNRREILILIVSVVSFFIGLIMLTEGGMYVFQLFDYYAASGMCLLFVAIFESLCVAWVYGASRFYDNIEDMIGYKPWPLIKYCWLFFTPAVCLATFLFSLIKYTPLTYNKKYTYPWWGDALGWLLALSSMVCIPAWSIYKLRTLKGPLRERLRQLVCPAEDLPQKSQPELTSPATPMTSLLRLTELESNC
The assay is described as follows: [3H]GABA uptake, full competition curves at cloned rGAT-2 (transient transfection, COS cells). In kind it is cell-based.

For the next assay, the target named is T4, rat GAT-3 (Rattus norvegicus, UniProt P31647).
T4 sequence (P31647 54-627 limits assumed): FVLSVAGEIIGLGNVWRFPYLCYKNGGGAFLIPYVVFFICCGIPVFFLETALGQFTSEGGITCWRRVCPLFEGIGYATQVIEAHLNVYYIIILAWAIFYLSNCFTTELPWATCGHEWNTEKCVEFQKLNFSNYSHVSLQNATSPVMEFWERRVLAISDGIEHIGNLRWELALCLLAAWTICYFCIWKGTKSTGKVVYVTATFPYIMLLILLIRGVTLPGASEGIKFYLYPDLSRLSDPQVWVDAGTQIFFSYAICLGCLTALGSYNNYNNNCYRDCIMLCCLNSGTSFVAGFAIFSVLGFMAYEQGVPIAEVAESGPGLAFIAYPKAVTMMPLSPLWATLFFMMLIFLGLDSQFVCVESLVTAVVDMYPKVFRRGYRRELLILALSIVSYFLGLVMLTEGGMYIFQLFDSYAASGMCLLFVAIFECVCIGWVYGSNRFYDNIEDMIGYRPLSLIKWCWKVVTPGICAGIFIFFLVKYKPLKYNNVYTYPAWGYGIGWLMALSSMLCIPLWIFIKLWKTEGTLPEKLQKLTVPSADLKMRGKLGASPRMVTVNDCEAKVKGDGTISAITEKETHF

The next assay concerns the target T5, hBGT-1 (Homo sapiens, UniProt P48065).
T5 sequence (P48065 1-614): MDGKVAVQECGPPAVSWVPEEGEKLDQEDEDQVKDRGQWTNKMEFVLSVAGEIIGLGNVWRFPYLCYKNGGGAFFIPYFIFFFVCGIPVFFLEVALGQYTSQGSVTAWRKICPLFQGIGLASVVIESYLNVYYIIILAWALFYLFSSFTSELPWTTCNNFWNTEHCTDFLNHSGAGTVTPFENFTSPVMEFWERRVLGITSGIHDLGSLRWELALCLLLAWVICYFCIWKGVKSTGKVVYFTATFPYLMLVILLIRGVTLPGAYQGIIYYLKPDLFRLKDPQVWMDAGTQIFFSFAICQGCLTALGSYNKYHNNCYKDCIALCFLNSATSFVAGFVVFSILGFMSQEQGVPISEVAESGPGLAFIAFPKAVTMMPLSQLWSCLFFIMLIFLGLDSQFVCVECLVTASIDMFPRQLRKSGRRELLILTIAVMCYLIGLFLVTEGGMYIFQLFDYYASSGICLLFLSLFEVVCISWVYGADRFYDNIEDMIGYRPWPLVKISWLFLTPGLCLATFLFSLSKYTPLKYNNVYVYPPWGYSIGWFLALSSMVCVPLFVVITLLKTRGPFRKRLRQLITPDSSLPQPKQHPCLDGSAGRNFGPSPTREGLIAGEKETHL
Kind of assay: [3H]GABA uptake, full competition curves at cloned hBGT-1 (transient transfection, COS cells). The class given is cell-based. Details: expressed in transfected cells; host or cells: COS cells, transient (DEAE-dextran).

The target in the next assay is T6, rat GAT-2 (Rattus norvegicus, UniProt P31646).
T6 sequence (P31646 1-602): T3 sequence (P31646 1-602)

For another assay, the target named is rat GAT-1 (Rattus norvegicus, UniProt P23978). Conditions: for IC50: read-out: IC50 for inhibition of [3H]GABA uptake, rGAT-1 (Table 8).
Where [1] appears, read: COS-7, read-out: % Inhibition of [3H]GABA uptake, GAT-1.
[2] abbreviates: COS, read-out: % Inhibition of [3H]GABA uptake, GAT-3.
Where [3] appears, read: read-out: IC50 for inhibition of [3H]GABA uptake, rGAT-2 (Table 8), full competition curves, 50 nM [3H]GABA.
Where [4] appears, read: read-out: IC50 for inhibition of [3H]GABA uptake, rGAT-3 (Table 8), full competition curves, 50 nM [3H]GABA.
The mark [5] stands for this setting: read-out: IC50 for inhibition of [3H]GABA uptake, hBGT-1 (Table 8), full competition curves, 50 nM [3H]GABA.
Where [6] appears, read: inhibitor 10 μM, 50 nM [3H]GABA, 10 minutes, 37° C.

Read-outs that look alike come from different tables or passages of the source.

Experimental for rat GAT-1: (§1) Cells grown in 24-well plates were washed 3× with HEPES-buffered saline (HBS, in mM: NaCl, 150; HEPES, 20; CaCl2, 1; glucose, 10; KCl, 5; MgCl2, 1; pH 7.4) and allowed to equilibrate on a 37° C. slide warmer. After 10 minutes the medium was removed and unlabeled drugs in HBS were added (450 μl/well). […] Plates were incubated at 37° C. for 10 minutes, then washed rapidly 3× with ice-cold HBS, using a 24-position plate washer (Brandel, Gaithersburg, Mass.; model PW-12). Cells were solubilized with 0.05% sodium deoxycholate/0.1N NaOH (0.25 ml/well), an aliquot neutralized with 1N HCl, and radioactivity was determined by scintillation counting. Protein was quantified in an aliquot of the solubilized cells using a BIO-RAD protein assay kit, according to the manufacturer's directions.
(§2) Lipophilic inhibitors were dissolved in DMSO.
(§3) Data Analysis: Competition curves were conducted in duplicate, using 10 concentrations of unlabeled drug.
(§4) COS cells grown in 75 cm^2 or 150 cm^2 flasks in DMEM with 10% bovine calf serum, 100 U/ml penicillin G, and 100 μg/ml streptomycin sulfate (37° C., 5% CO2) were transfected using DEAE-dextran. On the day following transfection the cells were split into 24-well assay plates coated with poly-D-lysine (10 μg/ml), and transport was measured 24 hours later.
(§5) After 10 minutes the medium was removed and unlabeled drugs in HBS were added (450 μl/well). […] Plates were incubated at 37° C. for 10 minutes, then washed rapidly 3× with ice-cold HBS, using a 24-position plate washer (Brandel, Gaithersburg, Mass.; model PW-12). Cells were solubilized with 0.05% sodium deoxycholate/0.1N NaOH (0.25 ml/well), an aliquot neutralized with 1N HCl, and radioactivity was determined by scintillation counting. Protein was quantified in an aliquot of the solubilized cells using a BIO-RAD protein assay kit, according to the manufacturer's directions.
Experimental for rat GAT-2: Cells were grown under standard conditions (37° C., 5% CO2) in Dulbecco's modified Eagles's medium (GIBCO, Grand Island, N.Y.).
as §1, §2, §3
Experimental for rat GAT-3: as §1, §2, §3, §4, §5

As for `N[C@@H]1CCC[C@H](C(=O)O)C1` (relative stereo) [ACHC, cis-3-aminocyclohexanecarboxylic acid], the figures for the inhibition at 100 µM at GAT-1 (setting [1]) and at GAT-3 (setting [2]) were 49 ± 10% and 0%, respectively. The values for the IC50 on rGAT-2, against rat GAT-3 and at hBGT-1 were 25900 µM, 55100 µM and 1.07 mM, respectively.

`NCCCC(=O)O` [GABA, gamma-aminobutyric acid]: at GAT-3 (various concentrations of [3H]GABA, 30 seconds), the “VMAX of GABA transport, COS/rB8b and/or COS/K438-rB8b (GAT-3)” value was 3.0±0.9 nmoles/mg protein. In addition, the IC50 on rGAT-2 is 17 ± 6 µM; against rat GAT-2, roughly 5 µM; against rat GAT-3, 33 ± 10 µM.

Turning to `N=C(N)NCCS(=O)(=O)O` [GES, guanidinoethanesulfonic acid], the IC50 on rGAT-2 (setting [3]) was 696 ± 110 µM; at rat GAT-1 (full competition curves, 50 nM [3H]GABA) it was 4840 µM; at rat GAT-3 (setting [4]), 915 ± 49 µM; on hBGT-1 (setting [5]) it was 4.8 mM.

Regarding `NCC[C@H](N)C(=O)O` [L-DABA, L-(2,4)diaminobutyric acid], the inhibition at 100 µM on GAT-1 (setting [1]) was 49 ± 8%; on GAT-3 (setting [2]) it was 4 ± 1%. Further, the IC50 came to 300 ± 51 µM at rGAT-2, 710 ± 237 µM on rat GAT-3 and 0.528 ± 0.062 mM on hBGT-1.

Take `O=C(O)C1=CCCN(CCON=C(c2ccccc2)c2ccccc2)C1` [NNC-711]: the IC50 came to 729 ± 319 µM on rGAT-2 (setting [3]); 0.38 µM on rat GAT-1; 171 ± 53 µM on rat GAT-2 (read-out: IC50 for inhibition of [3H]GABA uptake, rat GAT-2, stable cell line, 50 nM [3H]GABA); 349 ± 151 µM on rat GAT-3 (setting [4]); 349 ± 151 µM at rat GAT-3 (read-out: IC50 for inhibition of [3H]GABA uptake, rat GAT-3, transient transfection, 50 nM [3H]GABA); 3.57 mM at hBGT-1 (setting [5]). In addition, the “selectivity for GAT-1” value on rat GAT-1 is reported as 1,000 fold.

As for `O=C(O)C1=CCCNC1` [guvacine], the figures for the inhibition at 10 µM at GAT-1 (setting [1]) and at GAT-3 (setting [2]) were 41 ± 3% and 8 ± 5%, respectively. Also, the IC50 on rGAT-2 came out at 228 ± 38 µM; on rat GAT-3 it was 378 ± 175 µM; on hBGT-1, 1.42 mM.

With `NCCS(=O)O` [hypotaurine], the IC50 at rGAT-2 was determined as 52 ± 6 µM; against rat GAT-3 it was 73 ± 7 µM; at hBGT-1, 0.536 ± 0.041 mM.

With `NCCS(=O)(=O)O` [taurine, 2-aminoethanesulfonic acid], the IC50 on rGAT-2 stood at 1270 µM; at rat GAT-3 it was 2860 µM; at hBGT-1 it was 13.2 mM.

With `NCCC(=O)O` [β-alanine], the inhibition at 100 µM at GAT-1 (setting [1]) is 11 ± 1%; on GAT-3 (setting [2]), 70 ± 1%. Moreover, the IC50 on rGAT-2 was 66 ± 9 µM; on rat GAT-2, 19 ± 7 µM; against rat GAT-3, 110 ± 40 µM; at hBGT-1, 1.1 mM.

As for hydroxynipecotic acid [OH-nipecotic], at GAT-1 (setting [6]), the “% Inhibition of [3H]GABA uptake, GAT-1” value was 34 ± 5 (3) %. On GAT-3 (setting [6]), the “% Inhibition of [3H]GABA uptake, GAT-3” value is 5 ± 2 (3) %. Further, the IC50 on rGAT-2 (setting [3]) was determined as 567 ± 50 µM; at rat GAT-1, 44 ± 8 µM; at rat GAT-3 (setting [4]) it was 467 ± 53 µM; on hBGT-1 (setting [5]), 3.84 mM.
